# Data published in patent US12472210B2 (priority 2019, dated 2025).
# “And” between values parts separate entries of the source, which are not always exact repeats. Equal values may be shown once. Read-outs that look alike come from different tables or passages of the source.
# Legend:
# [1] = system: subcutaneously transplanted human liver cancer LM3 tumor; set-up: species or system BALB/c nude mice; details: mouse, in vivo
# [2] = mouse, in vivo
# [3] = system: subcutaneously transplanted human liver cancer LM3 tumor; set-up: species or system BALB/c nude mice; details: mouse, in vivo, ip
# [4] = mouse, in vivo, ip
smiles,measurement,setting,value
O=P1(N(CCCl)CCCl)NCCCO1 (centres unmarked) [cyclophosphamide],Tumor inhibition rate (%),[1],79.33% and 79.33 ± 0.10%
same,Tumor weight,[1],0.21 ± 0.10 g
same,Spleen quality,[2],0.12 ± 0.02 g
same,body weight at the end of the experiment,[2],18.91 ± 0.46 g
same,Tumor inhibition rate (%),[3]; 10 mg/kg,33.21% and 33.21 ± 1.41%
same,Tumor weight,[3]; 10 mg/kg,0.50 ± 0.02 g
same,Tumor inhibition rate (%),[3]; 20 mg/kg,62.67% and 62.67 ± 5.81%
same,Tumor weight,[3]; 20 mg/kg,0.28 ± 0.06 g
same,Spleen index,[4]; 10 mg/kg,1.08 ± 0.12 mg/g
same,Spleen quality,[4]; 10 mg/kg,0.19 ± 0.01 g
same,body weight at the end of the experiment,[4]; 10 mg/kg,18.58 ± 0.41 g
same,Spleen index,[4]; 20 mg/kg,1.01 ± 0.08 mg/g
same,Spleen quality,[4]; 20 mg/kg,0.17 ± 0.01 g
same,body weight at the end of the experiment,[4]; 20 mg/kg,17.54 ± 0.28 g
